Assay results taken from US7977045B2, “Aqueous-based pharmaceutical composition” (Aventis Pharmaceuticals Inc., priority 1996, dated 2011).

Assay: Positron emission tomography of nasal deposition and retention of TAA after spraying the composition
Format: in vivo, human
Protocol: A dose of the composition can be delivered to a human patient by spraying the composition into each of the patient's nasal cavities. For dose delivery, the pre-compression metering pump (Valois VP7/100S) is placed in a patient's nostril and is then actuated by the patient, resulting in a spray into the nasal cavity. After initial priming, each actuation of the pump delivers from the nasal actuator about 100 mg of composition containing about 55 mcg of TAA. Each bottle of composition will provide at least about 120 metered doses. For the exemplified compositions, the recommended once-daily dosing for adults and children 12 years and older begins at about 220 mcgs of TAA, equivalent to two sprays in each nostril.
A composition comprising the formulation of Examples 1 and 2 was administered to two volunteer patients. Post administration, the patients were evaluated by positron emission tomography in order to determine 1) the amount of time it took for the maximum dose of the TAA medicament to be delivered to various regions of interest within the nasal cavity, and 2) the amount of TAA medicament deposited on the regions of interest over a two hour time period. For purposes of the evaluation, the volume of the head region was segmented into 104 distinct regions of interest. […] The results of evaluation indicate a rapid distribution of the TAA medicament to the target regions of the nose.
The evaluation included also a determination of the percentage of the TAA medicament remaining on the target sites two hours after the it was administered to each of the patients. This percentage was determined by dividing the amount remaining in each region of interest by the total amount remaining in the 104 regions of interest.

[1] = first volunteer, at maximum concha contact
[2] = first volunteer, over a two-hour period
[3] = first volunteer, two hours post administration, share of total remaining in 104 regions
[4] = other (second) volunteer, post dose
[5] = second volunteer, two hours post administration

Which results are given for CC1(C)O[C@@H]2C[C@H]3[C@@H]4CCC5=CC(=O)C=C[C@]5(C)[C@@]4(F)[C@@H](O)C[C@]3(C)[C@]2(C(=O)CO)O1 [TAA, triamcinolone acetonide]?
dose directly deposited on the target sites (frontal cavity, frontal sinus, maxillary sinuses, superior and inferior concha) (both volunteers, amount in region divided by total amount remaining in the 104 regions of interest, two hours): greater than 85%; maximum amount of TAA medicament in contact with the frontal cavity region (first volunteer): about 41%; maximum amount of the dose deposited into the frontal sinus (first volunteer): approximately 3.5%; maximum amount of the dose deposited into the maxillary sinuses (first volunteer): ~3.9%; time to clearance of TAA medicament from the frontal sinus (first volunteer): ≤ 1 h; amount of total dose in contact with the inferior concha [1]: About 46%; amount of total dose in contact with the superior concha [1]: about 19%; amount of total dose remaining in the concha tissues (constant value) (first volunteer, final time period): 3.4-4%; maximum amount of TAA medicament in contact with the concha regions, % of total dose delivered to the nose (first volunteer, intranasal spray of formulation of Examples 1 and 2, PET): about 65%; dose deposited in the maxillary sinus region [2]: about 3%; dose deposited on the frontal sinus [2]: about 1.2%; time of maximum amount in contact with the concha regions (first volunteer, post dose): about 45 seconds; time of maximum amount in contact with the frontal cavity region (first volunteer, post dose): about 45 seconds; time of maximum deposit in the frontal and maxillary sinuses (first volunteer, post dose): ≤ 30 s; medicament still present in the maxillary sinuses (first volunteer, two hour acquisition sampling time): approximately 1%; total TAA medicament remaining deposited in the frontal cavity (first volunteer, two hours after administration, share of total remaining in 104 regions): about 47.9%; amount remaining in the concha region (inferior plus superior) (first volunteer, two hours post administration): about 36.4%; total medicament deposited in the inferior concha region [3]: about 27.8%; total medicament deposited in the superior concha region [3]: about 8.6%; amount in the frontal cavity region (constant level) (first volunteer, two hours post-dose): about 12%; sum of percentages remaining on the target sites (dose deposited directly onto target tissues) (first volunteer, two-hour serial sampling period): about 88.5%; maximum amount deposited in the frontal sinus (other (second) volunteer): around 3.5%; maximum amount deposited in the maxillary sinus (other (second) volunteer): about 2%; maximum amount of TAA medicament in contact with the frontal cavity, % of total dose delivered to the nose (other (second) volunteer): about 55%; part of the maximum concha amount associated with the inferior concha (other (second) volunteer): about 75%; part of the maximum concha amount associated with the superior concha (other (second) volunteer): about 25%; administered dose still in contact with the concha regions (other (second) volunteer, about two hours post-administration): 6-8%; dose still resident in the frontal/nasal cavity (other (second) volunteer, after two hours): approximately 22%; maximum amount of the drug in contact with the concha regions, % of total dose delivered to the nose (other (second) volunteer, intranasal spray of formulation of Examples 1 and 2, PET): about 53%; time of maximum amount in contact with the frontal cavity [4]: ≤ 30 s; time of maximum amount in contact with the inferior concha region [4]: about 3.5 minutes; time of maximum amount in contact with the superior concha region [4]: about 25 seconds; time of maximum deposit in the maxillary and frontal sinuses [4]: ≤ 30 s; sum of percentages remaining on the target sites (dose deposited directly onto target tissues) (second volunteer, two hour serial sampling period): about 85.6%; dose in the frontal sinus [5]: about 1.6%; dose in the maxillary sinus [5]: about 1.4%; dose remaining deposited on the inferior concha [5]: About 23.5%; dose remaining deposited on the superior concha [5]: about 6.9%; total percentage of the dose remaining deposited on the concha region [5]: about 30.4%; dose remaining deposited in the frontal cavity (second volunteer, two hours post-drug administration, share of total remaining in 104 regions): about 52.2%
